This note sets out measurements from patent US20230146395A1, “Substituted Pyrimidines and Uses Thereof” (Verge Analytics, Inc., priority 2020, published 2023).

The target of test [1] is T1, Full length human recombinant PIKFYVE (Homo sapiens, UniProt Q9Y2I7).
T1 construct: Full length human recombinant PIKFYVE; purchased Carna Biosciences (Kobe, Japan); host or cells: baculovirus expression system
The test can be described thus: Inhibition of PIKfyve (microfluidic electrophoresis kinase assay, PI3P/PS substrate). As to conditions: 12 concentrations. Format: biochemical. In a few lines:
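GST-tagged full-length human PIKFYVE (baculovirus; 2 nM) with fluorescent PI3P/PS (1 μM PI3P) and […] in pH 7.5 HEPES with Mg2+/Mn2+, 1% DMSO, 3 h at room temperature. PI(3,5)P product/substrate ratio read by microfluidic electrophoresis; 12-point % inhibition versus no-enzyme and DMSO controls.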

For test [2], the system named is HEK 293T transfected with plasmids containing TDP-43 Q331K mutation. The test can be described thus: HEK/TDP Survival assay (Cell-Titer-Glo, 48 hrs, maximal effect of rescue). Format: cell-based. As to conditions: Homo sapiens, HEK 293T with TDP-43 Q331K, (n) in brackets. The protocol: HEK/TDP Survival assay: Immortalized human embryonic kidney 293T (HEK 293T) were transfected with plasmids containing TDP-43 Q331K mutation, resulting in an increase in cell death that is biologically relevant to ALS patients. Cell death is measured as reductions in the amount of ATP, an indicator of metabolically active cells, that is quantified by a luminescence Cell-Titer-Glo® (CTG) reagent. Compounds are evaluated in this model for changes in CTG compared to a no treatment group. Increased signal indicates improved survival (rescue) and decreased signal indicates decreased survival.
Cell rescue was measured in a 96-well format with eight different concentrations of the test compound over 48 hours (hrs) with 6 replicates. The Promega Cell-Titer-Glo® Luminescent Cell Viability Assay was used to quantify ATP, an indicator of metabolically active cells (see protocol: https://www.promega.com/-/media/files/resources/protocols/technical-manuals/101/celltiterglo-2-0-assay-protocol.pdf?la=en). The luminescence signal was detected using the PerkinElmer EnVision or Molecular Devices SpectraMax.
The effect of a compound at a given dose on cell viability was determined using a three step procedure. First, Hedge's g for the Cell Titer-Glo luminescence values using six untreated wells on every plate as a control was calculated. […] Finally, values from all compound-dose pairs were corrected for multiple hypothesis testing using the Empirical Bayes framework of Stephens, M. (False discovery rates: a new deal, Biostatistics, 18 [2], 2017, 275-294) yielding credible intervals for the measured effect and associated s values.
Briefly, this method computes a local false sign rate for each experiment. Analogous to the local false discovery rate of Efron, B. (Size, power and false discovery rates, Ann. Statist. 35 [4], 2007, 1351-1377) this value measures the confidence in the sign of each effect (rather than confidence in each effect being non-zero). The s values reported in the previous figures are the expected fraction of errors if estimating the sign of all effects with greater absolute local false sign rate, defined in analogy to the q value of Storey, JD (The positive false discovery rate: a Bayesian interpretation and the q-value, Ann. Statist. 31 [6] 2003, 2013-2035).
Drugs that yielded signed log s values greater than 3 were considered hits. This threshold was determined by a separate calibration experiment in which Cell Titer-Glo® was measured in blank plates consisting of untreated cells to assess the noise inherent in the assay. Data are presented as the maximal effect of rescue obtained from the dose-response curve.

pIC50: −log10 of the molar value.

T1 sequence (Q9Y2I7 whole entry): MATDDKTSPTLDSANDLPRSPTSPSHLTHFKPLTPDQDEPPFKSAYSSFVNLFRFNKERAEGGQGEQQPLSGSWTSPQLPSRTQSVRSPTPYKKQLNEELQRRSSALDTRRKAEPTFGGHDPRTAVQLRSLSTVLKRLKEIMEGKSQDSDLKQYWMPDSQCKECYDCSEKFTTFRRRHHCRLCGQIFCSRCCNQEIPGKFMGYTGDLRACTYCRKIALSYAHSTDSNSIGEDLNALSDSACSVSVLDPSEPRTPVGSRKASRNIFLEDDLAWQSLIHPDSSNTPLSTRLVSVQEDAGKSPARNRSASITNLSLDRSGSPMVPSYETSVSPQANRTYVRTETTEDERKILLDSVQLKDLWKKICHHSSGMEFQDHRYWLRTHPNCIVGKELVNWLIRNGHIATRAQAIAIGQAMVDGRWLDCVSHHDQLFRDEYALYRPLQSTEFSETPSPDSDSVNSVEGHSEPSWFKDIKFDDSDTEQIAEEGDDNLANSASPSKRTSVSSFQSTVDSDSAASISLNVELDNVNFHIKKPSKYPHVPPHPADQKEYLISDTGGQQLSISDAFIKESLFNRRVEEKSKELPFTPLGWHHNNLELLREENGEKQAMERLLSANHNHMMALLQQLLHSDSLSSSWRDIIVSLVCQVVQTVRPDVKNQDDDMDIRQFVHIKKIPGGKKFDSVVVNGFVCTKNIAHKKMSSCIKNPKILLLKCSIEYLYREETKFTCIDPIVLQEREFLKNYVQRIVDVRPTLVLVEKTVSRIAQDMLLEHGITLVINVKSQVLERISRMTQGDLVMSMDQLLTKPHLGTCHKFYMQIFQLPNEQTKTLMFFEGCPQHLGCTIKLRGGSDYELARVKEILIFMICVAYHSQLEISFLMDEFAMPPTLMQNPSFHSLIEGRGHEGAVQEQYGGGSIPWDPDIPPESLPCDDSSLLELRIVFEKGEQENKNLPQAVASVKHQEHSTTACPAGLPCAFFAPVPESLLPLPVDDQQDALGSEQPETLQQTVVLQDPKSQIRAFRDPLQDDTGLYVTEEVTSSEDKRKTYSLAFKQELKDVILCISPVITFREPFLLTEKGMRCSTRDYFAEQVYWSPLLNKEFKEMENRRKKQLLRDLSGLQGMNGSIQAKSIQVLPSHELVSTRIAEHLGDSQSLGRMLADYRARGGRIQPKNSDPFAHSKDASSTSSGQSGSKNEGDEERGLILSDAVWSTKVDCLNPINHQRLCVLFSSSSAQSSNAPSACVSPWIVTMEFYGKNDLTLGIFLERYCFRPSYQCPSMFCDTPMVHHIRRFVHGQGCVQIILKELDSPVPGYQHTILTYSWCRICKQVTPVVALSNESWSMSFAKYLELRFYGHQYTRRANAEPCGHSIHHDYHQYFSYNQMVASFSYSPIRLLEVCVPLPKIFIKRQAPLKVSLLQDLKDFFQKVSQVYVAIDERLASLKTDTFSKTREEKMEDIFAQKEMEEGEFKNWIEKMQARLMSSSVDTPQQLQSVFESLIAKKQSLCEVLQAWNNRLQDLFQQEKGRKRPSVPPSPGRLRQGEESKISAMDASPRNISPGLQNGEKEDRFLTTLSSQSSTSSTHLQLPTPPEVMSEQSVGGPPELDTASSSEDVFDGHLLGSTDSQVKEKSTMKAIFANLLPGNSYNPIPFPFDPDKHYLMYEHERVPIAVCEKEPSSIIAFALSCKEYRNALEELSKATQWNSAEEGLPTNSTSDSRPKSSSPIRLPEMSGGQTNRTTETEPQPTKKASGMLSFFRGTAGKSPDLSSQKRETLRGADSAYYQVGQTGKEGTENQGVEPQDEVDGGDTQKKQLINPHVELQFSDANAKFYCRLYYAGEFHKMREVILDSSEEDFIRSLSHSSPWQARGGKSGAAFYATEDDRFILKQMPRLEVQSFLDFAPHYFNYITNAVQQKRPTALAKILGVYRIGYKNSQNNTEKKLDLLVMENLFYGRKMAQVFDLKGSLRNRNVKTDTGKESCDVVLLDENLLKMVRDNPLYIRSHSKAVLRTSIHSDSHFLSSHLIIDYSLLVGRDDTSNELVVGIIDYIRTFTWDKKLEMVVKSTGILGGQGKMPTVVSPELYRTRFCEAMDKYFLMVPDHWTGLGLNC

With `Cc1cccc(-c2ccn(-c3nc(N4CCOCC4)c4oc(C(=O)NCCCCN(C)C)cc4n3)n2)c1` [Compound 108, N-(4-(dimethylamino)butyl)-4-morpholino-2-(3-(m-tolyl)-1H-pyrazol-1-yl)furo[3,2-d]pyrimidine-6-carboxamide], in test [1], the pIC50 is 7.63. It took 53 nM to reach a half-maximal effect in test [2] (EC50).
The like results for `Cc1cccc(-c2cnn(-c3nc(N4CCOCC4)c4oc(C(=O)NCCCCN(C)C)cc4n3)c2)c1` [Compound 110, N-(4-(dimethylamino)butyl)-4-morpholino-2-(4-(m-tolyl)-1H-pyrazol-1-yl)furo[3,2-d]pyrimidine-6-carboxamide] were, in that order, 8.54 and 33 nM.
In the case of `Cc1cccc(-c2cnn(-c3nc(N4CCOCC4)c4oc(C(=O)NC5CCCN(C)CC5)cc4n3)c2)c1` (stereo not shown) [Compound 129, N-(1-methylazepan-4-yl)-4-morpholino-2-(4-(m-tolyl)-1H-pyrazol-1-yl)furo[3,2-d]pyrimidine-6-carboxamide], the pIC50 in test [1] was 7.93. The EC50 in test [2] was found to be 9 nM.
Regarding `Cc1cccc(-c2ccn(-c3nc(N4CCOCC4)c4oc(C(=O)NCCCN(C)C)cc4n3)n2)c1` [Compound 109, N-(3-(dimethylamino)propyl)-4-morpholino-2-(3-(m-tolyl)-1H-pyrazol-1-yl)furo[3,2-d]pyrimidine-6-carboxamide], in test [1], the pIC50 was 7.93. For the same molecule, it took 46.5 nM to reach a half-maximal effect in test [2] (EC50).
As to `Cc1cccc(-c2ccn(-c3nc(N4CCOCC4)c4oc(C(=O)NCC5COC5)cc4n3)n2)c1` [Compound 105, 4-morpholino-N-(oxetan-3-ylmethyl)-2-(3-(m-tolyl)-1H-pyrazol-1-yl)furo[3,2-d]pyrimidine-6-carboxamide], the pIC50 in test [1] was 7.49. The same molecule had a concentration for a half-maximal effect (EC50) in test [2] of 100 nM.
The like results for `Cc1cccc(-c2ccn(-c3nc(N4CCOCC4)c4oc(-c5cccnc5)cc4n3)n2)c1` [Compound 90] were, in that order, 8.11 and 20.5 nM.
The like results for `C[C@H](NC(=O)c1cc2nc(-n3cc(-c4ccccc4)cn3)nc(N3CCOCC3)c2o1)C1CC1` [Compound 114, (S)-N-(1-cyclopropylethyl)-4-morpholino-2-(4-phenyl-1H-pyrazol-1-yl)furo[3,2-d]pyrimidine-6-carboxamide] were, in that order, 8.02 and 61 nM.
The like results for `Cc1cccc(-c2cnn(-c3nc(N4CCOCC4)c4oc(C(=O)NCCCS(=O)(=O)N(C)C)cc4n3)c2)c1` [Compound 120, N-(3-(N,N-dimethylsulfamoyl)propyl)-4-morpholino-2-(4-(m-tolyl)-1H-pyrazol-1-yl)furo[3,2-d]pyrimidine-6-carboxamide] were, in that order, 7.79 and 121 nM.
As to `Cc1cccc(-c2cnn(-c3nc(N4CCOCC4)c4oc(C(=O)NC5CCCN(C)C5)cc4n3)c2)c1` (stereo not shown) [Compound 123, N-(1-methylpiperidin-3-yl)-4-morpholino-2-(4-(m-tolyl)-1H-pyrazol-1-yl)furo[3,2-d]pyrimidine-6-carboxamide], the negative logarithm of the IC50 (pIC50) in test [1] is 8.48. This molecule also had an EC50 in test [2] of 28.5 nM.
In the case of `Cc1cccc(-c2cnn(-c3nc(N4CCOCC4)c4oc(C(=O)NC5CCN(C)CC5)cc4n3)c2)c1` [Compound 121, N-(1-methylpiperidin-4-yl)-4-morpholino-2-(4-(m-tolyl)-1H-pyrazol-1-yl)furo[3,2-d]pyrimidine-6-carboxamide], the pIC50 in test [1] is 8.92. In addition, the response in test [2] was half-maximal at 21.5 nM (EC50).
The like results for `Cc1cccc(-c2ccn(-c3nc(N4CCOCC4)c4oc(-c5ccccn5)c(C(F)(F)F)c4n3)n2)c1` [Compound 112, 4-morpholino-6-(pyridin-2-yl)-2-(3-(m-tolyl)-1H-pyrazol-1-yl)-7-(trifluoromethyl) furo[3,2-d]pyrimidine] were, in that order, below 5.00 and 153 nM.
The like results for `Cc1cccc(-c2cnn(-c3nc(N4CCOCC4)c4oc(C(=O)NC5CC5)c(C)c4n3)c2)c1` [Compound 127, N-cyclopropyl-7-methyl-4-morpholino-2-(4-(m-tolyl)-1H-pyrazol-1-yl)furo[3,2-d]pyrimidine-6-carboxamide] were, in that order, 7.47 and 48 nM.
For `Cc1cccc(-c2ccn(-c3nc(N4CCOCC4)c4oc(C(=O)NC5CC5)cc4n3)n2)c1` [Compound 96, N-cyclopropyl-4-morpholino-2-(3-(m-tolyl)-1H-pyrazol-1-yl)furo[3,2-d]pyrimidine-6-carboxamide], the pIC50 in test [1] was 7.82. The molecule also registered an EC50 in test [2] of 17.5 nM.
In the case of `c1ccc(-c2cc(Nc3nc(N4CCOCC4)c4oc(-c5ccncc5)cc4n3)no2)cc1` [Compound 43, 4-morpholino-N-(5-phenylisoxazol-3-yl)-6-(pyridin-4-yl)furo[3,2-d]pyrimidin-2-amine], the pIC50 in test [1] was 8.10. The molecule also gave an EC50 in test [2] of 47.5 nM.
`COCCNC(=O)c1cc2nc(-n3cc(-c4cccc(C)c4)cn3)nc(N3CCOCC3)c2o1` [Compound 117, N-(2-methoxyethyl)-4-morpholino-2-(4-(m-tolyl)-1H-pyrazol-1-yl)fur[3,2-d]pyrimidine-6-carboxamide]: the pIC50 in test [1] is 7.43. This molecule also showed an EC50 in test [2] of 74.3 nM.
On the same counts, the results for `Cc1cccc(-c2cnn(-c3nc(N4CCOCC4)c4oc(-c5cc(C)n(CCN(C)C)n5)cc4n3)c2)c1` [Compound 146, N,N-dimethyl-2-(5-methyl-3-(4-morpholino-2-(4-(m-tolyl)-1H-pyrazol-1-yl)furo[3,2-d]pyrimidin-6-yl)-1H-pyrazol-1-yl)ethanamine] are 9.52 and 11 nM.
Take `[2H]C1([2H])OC([2H])([2H])C([2H])([2H])N(c2nc(-n3cc(-c4cccc(C)c4)cn3)nc3cc(-c4cccnc4)oc23)C1([2H])[2H]` [Compound 132, 4-morpholino (dg)-6-(pyridin-3-yl)-2-(4-(m-tolyl)-1H-pyrazol-1-yl)furo[3,2-d]pyrimidine]: the pIC50 in test [1] was 7.40. This molecule returned an EC50 in test [2] of 15 nM.
As for `Cc1cccc(-c2cnn(-c3nc(N4CCOCC4)c4oc(-c5cc(C)nn5CCN(C)C)cc4n3)c2)c1` [Compound 145, N,N-dimethyl-2-[3-methyl-5-[4-morpholino-2-[4-(m-tolyl)pyrazol-1-yl]furo[3,2-d]pyrimidin-6-yl]pyrazol-1-yl]ethanamine], in test [1], the pIC50 is 7.73. Moreover, the EC50 in test [2] is 27 nM.
On the same counts, the results for `Cc1cccc(-c2ccn(-c3nc(N4CCOCC4)c4oc(C(=O)NCC5CC5)cc4n3)n2)c1` [Compound 97, N-(cyclopropylmethy 1)-4-morpholino-2-(3-(m-tolyl)-1H-pyrazol-1-yl)furo[3,2-d]pyrimidine-6-carboxamide] are 7.77 and 16.5 nM.
On the same counts, the results for `Cc1cccc(-c2cnn(-c3nc(N4CCOCC4)c4oc(C(=O)NC5CCN(C)C5)cc4n3)c2)c1` (stereo not shown) [Compound 124, N-(1-methylpyrrolidin-3-yl)-4-morpholino-2-(4-(m-tolyl)-1H-pyrazol-1-yl)furo[3,2-d]pyrimidine-6-carboxamide] are 8.33 and 48 nM.
The like results for `Cc1cccc(-c2cnn(-c3nc(N4CCOCC4)c4oc(C(=O)NCC5CC5)cc4n3)c2)c1` [Compound 115, N-(cyclopropylmethyl)-4-morpholino-2-(4-(m-tolyl)-1H-pyrazol-1-yl)furo[3,2-d]pyrimidine-6-carboxamide] were, in that order, 8.51 and 35.7 nM.
Take `Cc1cccc(-c2cnn(-c3nc(N4CCOCC4)c4oc(C(=O)NC5CCOC5)cc4n3)c2)c1` (stereo not shown) [Compound 126, 4-morpholino-N-(tetrahydrofuran-3-yl)-2-(4-(m-tolyl)-1H-pyrazol-1-yl)furo[3,2-d]pyrimidine-6-carboxamide]: the pIC50 in test [1] is 8.54. The molecule also yielded an EC50 in test [2] of 30.5 nM.
Take `COCCNC(=O)c1cc2nc(-n3ccc(-c4cccc(C)c4)n3)nc(N3CCOCC3)c2o1` [Compound 93, N-(2-methoxyethyl)-4-morpholino-2-(3-(m-tolyl)-1H-pyrazol-1-yl)furo[3,2-d]pyrimidine-6-carboxamide]: the pIC50 in test [1] is 7.33. Besides, it took 60 nM to reach a half-maximal effect in test [2] (EC50).

As usually defined, the pIC50 is the IC50 on a negative log10 scale, so that one unit is a factor of ten. As a reminder, the EC50 is the midpoint of the concentration-response curve. Lower therefore signals a more potent agent.
